# Source: US20250312352A1, “GLP-1R MODULATING COMPOUNDS” (Gilead Sciences, Inc., priority 2021, published 2025)
# Biological target: T1, GLP-1R (Homo sapiens, UniProt P43220)
# T1 construct: host or cells: CHO cells
# Experiment: GLP-1R activation cAMP assay (Assay 1 or Assay 2)
# Assay type: cell-based
# Conditions: cAMP increase in CHO cells stably expressing GLP-1R; compounds run on one of the two cAMP assays
# How it was run: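 CHO cells stably expressing human GLP-1R were incubated 1 h in HBSS/20 mM HEPES/0.1% BSA, then exposed to 10-point agonist dilutions for 30 min at 37 °C. cAMP increase was measured with an HTRF Gs dynamic kit; EC50 from sigmoidal fit of response versus log concentration.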
# T1 sequence (P43220 24-463): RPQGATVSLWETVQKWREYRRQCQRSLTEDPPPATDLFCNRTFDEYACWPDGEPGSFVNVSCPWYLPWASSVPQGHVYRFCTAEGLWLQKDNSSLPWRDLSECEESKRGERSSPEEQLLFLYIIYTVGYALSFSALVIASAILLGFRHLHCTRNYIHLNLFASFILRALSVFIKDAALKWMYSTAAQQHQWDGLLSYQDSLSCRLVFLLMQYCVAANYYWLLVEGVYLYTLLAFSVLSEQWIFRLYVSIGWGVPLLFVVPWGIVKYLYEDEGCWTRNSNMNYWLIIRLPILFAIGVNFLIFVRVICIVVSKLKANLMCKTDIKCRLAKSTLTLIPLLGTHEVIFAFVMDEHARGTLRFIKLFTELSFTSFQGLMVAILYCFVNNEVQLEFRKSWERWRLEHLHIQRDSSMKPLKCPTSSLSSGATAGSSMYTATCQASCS
row,Structure (SMILES),EC50
1,"O=C(O)c1ccc2nc(Cc3cc(F)c(-c4cccc(OCc5ccc(C#Cc6cncnc6)cc5F)n4)cc3F)n(C[C@@H]3CCO3)c2c1 [Example 138, (S)-2-(2,5-difluoro-4-(6-((2-fluoro-4-(pyrimidin-5-ylethynyl)benzyl)oxy)pyridin-2-yl)benzyl)-1-(oxetan-2-ylmethyl)-1H-benzo[d]imidazole-6-carboxylic acid]",0.28 nM
2,"CCOc1nnc(COc2cccc(-c3cc(F)c(Cc4nc5ccc(C(=O)O)c(F)c5n4CCOC)cc3F)n2)s1 [Example 396, 2-(4-(6-((5-ethoxy-1,3,4-thiadiazol-2-yl)methoxy)pyridin-2-yl)-2,5-difluorobenzyl)-7-fluoro-1-(2-methoxyethyl)-1H-benzo[d]imidazole-6-carboxylic acid]",0.678 nM
3,"O=C(O)c1ccc2nc(Cc3cc(F)c(-c4cccc(OCc5nncs5)n4)cc3F)n(C[C@@H]3CCO3)c2c1 [Example 59, (S)-2-(4-(6-((1,3,4-thiadiazol-2-yl)methoxy)pyridin-2-yl)-2,5-difluorobenzyl)-1-(oxetan-2-ylmethyl)-1H-benzo[d]imidazole-6-carboxylic acid]",2.38 nM
4,"O=C(O)c1cc(F)c2nc(Cc3cc(F)c(-c4cccc(OCc5ncc(C#CC6(C(F)F)CC6)cc5Cl)n4)cc3F)n(C[C@@H]3CCO3)c2c1 [Example 381, (S)-2-(4-(6-((3-chloro-5-((1-(difluoromethyl)cyclopropyl)ethynyl)pyridin-2-yl)methoxy)pyridin-2-yl)-2,5-difluorobenzyl)-4-fluoro-1-(oxetan-2-ylmethyl)-1H-benzo[d]imidazole-6-carboxylic acid]",0.301 nM
5,"CC1(C)COC[C@H]1n1c(Cc2cc(F)c(-c3cccc(OCc4nnc(C(F)F)s4)n3)cc2F)nc2ccc(C(=O)O)cc21 [Example 432, (S)-2-(4-(6-((5-(difluoromethyl)-1,3,4-thiadiazol-2-yl)methoxy)pyridin-2-yl)-2,5-difluorobenzyl)-1-(4,4-dimethyltetrahydrofuran-3-yl)-1H-benzo[d]imidazole-6-carboxylic acid]",0.093 nM
6,"O=C(O)c1ccc2nc(Cc3cc(F)c(-c4cccc(OCc5ncc(-c6cnn(C7CC7)c6)s5)n4)cc3F)n(C[C@@H]3CCO3)c2c1 [Example 90, (S)-2-(4-(6-((5-(1-cyclopropyl-1H-pyrazol-4-yl)thiazol-2-yl)methoxy)pyridin-2-yl)-2,5-difluorobenzyl)-1-(oxetan-2-ylmethyl)-1H-benzo[d]imidazole-6-carboxylic acid]",0.21 nM
7,"O=C(O)c1cc(F)c2nc(Cc3c(F)cc(-c4cccc(OCc5ncc(C(F)(F)F)s5)n4)c(F)c3F)n(C[C@@H]3CCO3)c2c1 [Example 449, (S)-4-fluoro-1-(oxetan-2-ylmethyl)-2-(2,3,6-trifluoro-4-(6-((5-(trifluoromethyl)thiazol-2-yl)methoxy)pyridin-2-yl)benzyl)-1H-benzo[d]imidazole-6-carboxylic acid]",0.081 nM
8,"Cn1cc(C#Cc2ccc(COc3cccc(-c4cc(F)c(Cc5nc6ccc(C(=O)O)cc6n5C[C@@H]5CCO5)cc4F)n3)cc2)cn1 [Example 306, (S)-2-(2,5-difluoro-4-(6-((4-((1-methyl-1H-pyrazol-4-yl)ethynyl)benzyl)oxy)pyridin-2-yl)benzyl)-1-(oxetan-2-ylmethyl)-1H-benzo[d]imidazole-6-carboxylic acid]",0.621 nM
9,"Cn1ccnc1C#Cc1ccc(COc2cccc(-c3cc(F)c(Cc4nc5ccc(C(=O)O)cc5n4C[C@@H]4CCO4)cc3F)n2)c(F)c1 [Example 148, (S)-2-(2,5-difluoro-4-(6-((2-fluoro-4-((1-methyl-1H-imidazol-2-yl)ethynyl)benzyl)oxy)pyridin-2-yl)benzyl)-1-(oxetan-2-ylmethyl)-1H-benzo[d]imidazole-6-carboxylic acid]",0.51 nM
10,"COc1nc(C#Cc2cnn(C)c2)ccc1COc1cccc(-c2cc(F)c(Cc3nc4ccc(C(=O)O)cc4n3C[C@@H]3CCO3)cc2F)n1 [Example 360, (S)-2-(2,5-difluoro-4-(6-((2-methoxy-6-((1-methyl-1H-pyrazol-4-yl)ethynyl)pyridin-3-yl)methoxy)pyridin-2-yl)benzyl)-1-(oxetan-2-ylmethyl)-1H-benzo[d]imidazole-6-carboxylic acid]",0.174 nM
11,"O=C(O)c1ccc2nc(Cc3cc(F)c(-c4cccc(OCc5ncc(Br)s5)n4)cc3F)n(C[C@@H]3CCO3)c2c1 [Example 22, (S)-2-(4-(6-((5-bromothiazol-2-yl)methoxy)pyridin-2-yl)-2,5-difluorobenzyl)-1-(oxetan-2-ylmethyl)-1H-benzo[d]imidazole-6-carboxylic acid]",0.17 nM
12,"COc1nnc(COc2nc(-c3ccc(Cc4nc5c(F)cc(C(=O)O)cc5n4[C@@H]4COCC4(C)C)c(F)c3)ccc2F)s1 [Example 429, (S)-1-(4,4-dimethyltetrahydrofuran-3-yl)-4-fluoro-2-(2-fluoro-4-(5-fluoro-6-((5-methoxy-1,3,4-thiadiazol-2-yl)methoxy)pyridin-2-yl)benzyl)-1H-benzo[d]imidazole-6-carboxylic acid]",0.024 nM
13,"N#Cc1csc(COc2cccc(-c3cc(F)c(Cc4nc5ccc(C(=O)O)cc5n4C[C@@H]4CCO4)cc3F)n2)c1 [Example 130, (S)-2-(4-(6-((4-cyanothiophen-2-yl)methoxy)pyridin-2-yl)-2,5-difluorobenzyl)-1-(oxetan-2-ylmethyl)-1H-benzo[d]imidazole-6-carboxylic acid]",0.57 nM
14,"CCOc1nnc(COc2cc(-c3cc(F)c(Cc4nc5ccc(C(=O)O)cc5n4[C@@H]4COCC4(C)C)cc3C)ccc2F)s1 [Example 260, (S)-1-(4,4-dimethyltetrahydrofuran-3-yl)-2-((3′-((5-ethoxy-1,3,4-thiadiazol-2-yl)methoxy)-4′,5-difluoro-2-methyl-[1,1′-biphenyl]-4-yl)methyl)-1H-benzo[d]imidazole-6-carboxylic acid]",0.254 nM
15,"Cn1cnc(COc2cccc(-c3cc(F)c(Cc4nc5ccc(C(=O)O)cc5n4C[C@@H]4CCO4)cc3F)n2)c1 [Example 177, (S)-2-(2,5-difluoro-4-(6-((1-methyl-1H-imidazol-4-yl)methoxy)pyridin-2-yl)benzyl)-1-(oxetan-2-ylmethyl)-1H-benzo[d]imidazole-6-carboxylic acid]",34.6 nM
16,"O=C(O)c1ccc2nc(Cc3cc(F)c(-c4cccc(OCc5ncc(Cl)s5)n4)cc3F)n(C[C@@H]3CCO3)c2c1 [Example 47, (S)-2-(4-(6-((5-chlorothiazol-2-yl)methoxy)pyridin-2-yl)-2,5-difluorobenzyl)-1-(oxetan-2-ylmethyl)-1H-benzo[d]imidazole-6-carboxylic acid]",0.09 nM

# Further molecules by falling EC50, results first:
row,EC50,Structure (SMILES)
1,1070 nM,"COCCn1c(Cc2cc(F)c(-c3cccc(OCc4ccc(C#CC(C)(C)S(C)(=O)=O)nc4)n3)cc2F)nc2ccc(C(=O)O)cc21 [Example 221, 2-[[2,5-difluoro-4-[6-[[6-(3-methyl-3-methylsulfonyl-but-1-ynyl)-3-pyridyl]methoxy]-2-pyridyl]phenyl]methyl]-3-(2-methoxyethyl)benzimidazole-5-carboxylic acid]"
2,3.51 nM,"O=C(O)c1ccc2nc(Cc3cc(F)c(-c4cccc(OCc5ccn(-c6cnn(C(F)F)c6)n5)n4)cc3F)n(C[C@@H]3CCO3)c2c1 [Example 83, (S)-2-(4-(6-((1′-(difluoromethyl)-1′H-[1,4′-bipyrazol]-3-yl)methoxy)pyridin-2-yl)-2,5-difluorobenzyl)-1-(oxetan-2-ylmethyl)-1H-benzo[d]imidazole-6-carboxylic acid]"
3,1.16 nM,"O=C(O)c1ccc2nc(Cc3cc(F)c(-c4cccc(OCc5ccn(C(F)(F)F)n5)n4)cc3F)n(C[C@@H]3CCO3)c2c1 [Example 12, (S)-2-(2,5-difluoro-4-(6-((1-(trifluoromethyl)-1H-pyrazol-3-yl)methoxy)pyridin-2-yl)benzyl)-1-(oxetan-2-ylmethyl)-1H-benzo[d]imidazole-6-carboxylic acid]"
4,0.87 nM,"O=C(O)c1ccc2nc(Cc3cc(F)c(-c4cccc(OCc5cncs5)n4)cc3F)n(C[C@@H]3CCO3)c2c1 [Example 167, (S)-2-(2,5-difluoro-4-(6-(thiazol-5-ylmethoxy)pyridin-2-yl)benzyl)-1-(oxetan-2-ylmethyl)-1H-benzo[d]imidazole-6-carboxylic acid]"
5,0.683 nM,"Cc1cc(Cc2nc3ccc(C(=O)O)cc3n2C[C@@H]2CCO2)c(Cl)cc1-c1ccc(F)c(OCc2ncc(C(F)(F)F)s2)n1 [Example 369, (S)-2-(2-chloro-4-(5-fluoro-6-((5-(trifluoromethyl)thiazol-2-yl)methoxy)pyridin-2-yl)-5-methylbenzyl)-1-(oxetan-2-ylmethyl)-1H-benzo[d]imidazole-6-carboxylic acid]"
6,0.508 nM,"Cc1nnc(COc2nc(-c3cc(F)c(Cc4nc5c(F)cc(C(=O)O)cc5n4C[C@@H]4CCO4)cc3F)ccc2F)s1 [Example 297, (S)-2-(2,5-difluoro-4-(5-fluoro-6-((5-methyl-1,3,4-thiadiazol-2-yl)methoxy)pyridin-2-yl)benzyl)-4-fluoro-1-(oxetan-2-ylmethyl)-1H-benzo[d]imidazole-6-carboxylic acid]"
7,0.252 nM,"O=C(O)c1ccc2nc(Cc3cc(F)c(-c4cccc(OCc5ncc(C#Cc6cncs6)cc5F)n4)cc3F)n(C[C@@H]3CCO3)c2c1 [Example 303, (S)-2-(2,5-difluoro-4-(6-((3-fluoro-5-(thiazol-5-ylethynyl)pyridin-2-yl)methoxy)pyridin-2-yl)benzyl)-1-(oxetan-2-ylmethyl)-1H-benzo[d]imidazole-6-carboxylic acid]"
8,0.178 nM,"CCOc1nnc(COc2nc(-c3cc(Cl)c(Cc4nc5ccc(C(=O)O)cc5n4[C@@H]4COCC4(C)C)cc3C)ccc2F)s1 [Example 420, (S)-2-(2-chloro-4-(6-((5-ethoxy-1,3,4-thiadiazol-2-yl)methoxy)-5-fluoropyridin-2-yl)-5-methylbenzyl)-1-(4,4-dimethyltetrahydrofuran-3-yl)-1H-benzo[d]imidazole-6-carboxylic acid]"
